This is an account of results in US9242943B2, “1,4 oxazines as BACE1 and/or BACE2 inhibitors” (SIENA BIOTECH S.P.A., priority 2011, dated 2016).

As usually defined, the IC50 is the point on the concentration scale where inhibition reaches its midpoint.

The structures appear in SMILES notation.

BACE1, sequence (P56817 46-501): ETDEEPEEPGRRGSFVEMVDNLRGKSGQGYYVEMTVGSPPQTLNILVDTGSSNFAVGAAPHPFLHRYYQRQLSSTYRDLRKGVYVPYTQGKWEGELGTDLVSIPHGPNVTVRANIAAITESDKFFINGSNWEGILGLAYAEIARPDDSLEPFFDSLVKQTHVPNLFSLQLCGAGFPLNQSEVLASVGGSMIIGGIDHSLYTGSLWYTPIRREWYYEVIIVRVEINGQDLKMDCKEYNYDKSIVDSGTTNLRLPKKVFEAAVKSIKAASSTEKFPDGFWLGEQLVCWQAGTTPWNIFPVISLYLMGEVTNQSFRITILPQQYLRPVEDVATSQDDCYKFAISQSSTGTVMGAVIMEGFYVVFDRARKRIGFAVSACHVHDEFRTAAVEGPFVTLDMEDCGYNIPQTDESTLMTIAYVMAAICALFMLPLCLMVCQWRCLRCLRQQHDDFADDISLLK

For the test, the target named is BACE1 (Homo sapiens (Human), UniProt P56817). The experiment in a line: Cellular Aβ-lowering assay (Aβ40 ELISA, HEK293 cells expressing human APP695). To be noted: HEK293 cells stably transfected with human APP695; 18-20 hrs incubation; Aβ40 in supernatant; read-out: BACE1 cell act. Aβ40 IC50. Type of test: cell-based. As to the method:
Cellular Aβ-Lowering Assay:
Human HEK293 cells which are stably transfected with a vector expressing a cDNA of the human APP wt gene (APP695) were used to assess the potency of the compounds in a cellular assay. The cells were seeded in 96-well microtiter plates in cell culture medium (Iscove, plus 10% (v/v) fetal bovine serum, glutamine, penicillin/streptomycin) to about 80% confluence and the compounds were added at a 10× concentration in 1/10 volume of medium without FCS containing 8% DMSO (final concentration of DMSO was kept at 0.8% v/v). After 18-20 hrs incubation at 37° C. and 5% CO2 in a humidified incubator the culture supernatant was harvested for the determination of […] concentrations. 96well ELISA plates (e.g., Nunc MaxiSorb) were coated with monoclonal antibody which specifically recognize the C-terminal end of […] (Brockhaus et al., NeuroReport 9, 1481-1486; 1998). After blocking of non-specific binding sites with e.g. 1% BSA and washing, the culture supernatants were added in suitable dilutions together with a horseradish peroxidase-coupled Aβ detection antibody (e.g., antibody 4G8, Senetek, Maryland Heights, Mo.) and incubated for 5 to 7 hrs. Subsequently the wells of the microtiter plate were washed extensively with Tris-buffered saline containing 0.05% Tween 20 and the assay was developed with tetramethylbenzidine/H2O2 in citric acid buffer. After stopping the reaction with one volume 1 N H2SO4 the reaction was measured in an ELISA reader at 450 nm wavelength. The concentrations of Aβ in the culture supernatants were calculated from a standard curve obtained with known amounts of pure Aβ peptide.
With `CC1(c2cccc(NCc3ccc(Cl)cc3)c2)COCC(N)=N1` (centres unmarked) [Example 2, 5-[3-(4-Chloro-benzylamino)-phenyl]-5-methyl-5,6-dihydro-2H-[1,4]oxazin-3-ylamine], the IC50 came out at 450 nM.
The same measure for `CCCCNc1ccc(F)c([C@]2(C)COCC(N)=N2)c1` [Example 5, (R)-5-(5-Butylamino-2-fluoro-phenyl)-5-methyl-5,6-dihydro-2H-[1,4]oxazin-3-ylamine]: 340 nM.
With `CC(C)C(C)Nc1ccc(F)c([C@]2(C)COCC(N)=N2)c1` (stereo partly drawn) [Example 8, (5R)-5-(2-fluoro-5-(3-methylbutan-2-ylamino)phenyl)-5-methyl-5,6-dihydro-2H-1,4-oxazin-3-amine], the IC50 was determined as 2190 nM.
The same measure for `C[C@@]1(c2cc(NCC(F)(F)F)ccc2F)COCC(N)=N1` [Example 9, (R)-5-(2-fluoro-5-(2,2,2-trifluoroethylamino)phenyl)-5-methyl-5,6-dihydro-2H-1,4-oxazin-3-amine]: 350 nM; for `C[C@@]1(c2cc(NCC(F)F)ccc2F)COCC(N)=N1` [Example 10, (R)-5-[5-(2,2-Difluoro-ethylamino)-2-fluoro-phenyl]-5-methyl-5,6-dihydro-2H-[1,4]oxazin-3-ylamine]: 410 nM; for `CSCCCNc1ccc(F)c([C@]2(C)COCC(N)=N2)c1` [Example 13, (R)-5-(2-fluoro-5-(3-(methylthio)propylamino)phenyl)-5-methyl-5,6-dihydro-2H-1,4-oxazin-3-amine]: 310 nM.
The same measure for `C[C@@]1(c2cc(Nc3cc(F)cc4cc(Cl)cnc34)ccc2F)COCC(N)=N1` [Example 28, [3-((R)-5-Amino-3-methyl-3,6-dihydro-2H-[1,4]oxazin-3-yl)-4-fluoro-phenyl]-(3-chloro-6-fluoro-quinolin-8-yl)-amine]: 44 nM.
To `C[C@@]1(c2cc(Nc3cccc4cc(OCCF)cnc34)ccc2F)COCC(N)=N1` [Example 30, [3-((R)-5-Amino-3-methyl-3,6-dihydro-2H-[1,4]oxazin-3-yl)-4-fluoro-phenyl]-[3-(2-fluoro-ethoxy)-quinolin-8-yl]-amine] belongs 4770 nM; to `C[C@@]1(c2cc(Nc3cc(F)cc4cc(OCC5CC5)cnc34)ccc2F)COCC(N)=N1` [Example 31, [3-((R)-5-Amino-3-methyl-3,6-dihydro-2H-[1,4]oxazin-3-yl)-4-fluoro-phenyl]-(3-cyclopropylmethoxy-6-fluoro-quinolin-8-yl)-amine], 6900 nM; to `C[C@@]1(c2cc(Nc3cccc4cc(OCC(F)(F)F)cnc34)ccc2F)COCC(N)=N1` [Example 32, [3-((R)-5-Amino-3-methyl-3,6-dihydro-2H-[1,4]oxazin-3-yl)-4-fluoro-phenyl]-[3-(2,2,2-trifluoro-ethoxy)-quinolin-8-yl]-amine], 2360 nM.
For `CC1(c2cccc(NC3CCc4cc(Cl)ccc43)c2)COCC(N)=N1` (centres unmarked) [Example 39, 5-[3-(5-Chloro-indan-1-ylamino)-phenyl]-5-methyl-5,6-dihydro-2H-[1,4]oxazin-3-ylamine], the IC50 is 180 nM.
In the case of `C[C@@]1(c2cc(Nc3ccccc3OCC(F)(F)F)ccc2F)COCC(N)=N1` [Example 42, (R)-5-{2-Fluoro-5-[2-(2,2,2-trifluoro-ethoxy)-phenylamino]-phenyl}-5-methyl-5,6-dihydro-2H-[1,4]oxazin-3-ylamine], the IC50 came out at 5200 nM.
`CC1(c2cccc(Nc3ccccc3OC(F)F)c2)COCC(N)=N1` (centres unmarked) [Example 44, 5-[3-(2-Difluoromethoxy-phenylamino)-phenyl]-5-methyl-5,6-dihydro-2H-[1,4]oxazin-3-ylamine]: the IC50 was determined as 890 nM.
To `C[C@@]1(c2cc(NCc3nn(C(F)F)cc3Cl)ccc2F)COCC(N)=N1` [Example 45, (R)-5-{5-[(4-Chloro-1-difluoromethyl-1H-pyrazol-3-ylmethyl)-amino]-2-fluoro-phenyl}-5-methyl-5,6-dihydro-2H-[1,4]oxazin-3-ylamine] belongs 17 nM.
